Data published in patent US10214609B2, “Polyglyoxylates, manufacture and use thereof” (THE UNIVERSITY OF WESTERN ONTARIO, priority 2014, dated 2019).

Assays:
[1] = NMR degradation study of the micelles; assay type: physicochemical; settings: over 24 h at 37° C., pH 7.4 buffered D2O
Method: 16 mg of block copolymer 21 b was fully dissolved in 0.8 mL of DMSO-d6. 0.2 mL of the resulting solution was rapidly injected into 1.0 mL of 100 mM, pH 7.4 phosphate or 100 mM, pH 5.0 citrate buffered D2O. After stirring for 0.5 h, the micelle suspension was transferred into two NMR tubes. One tube was then irradiated for 10 min in with UV light (wavelength: 300-350 nm, 23 mW cm^−2), while the other one was kept in the dark. A ^1H NMR spectrum was obtained immediately following irradiation (10 min time point in the graph), then the samples were incubated at 37° C. and spectra were obtained at regular intervals over 24 h. Complete depolymerization was confirmed for the irradiated sample as the sum of the integration of the methyl peaks corresponding to EtGH and ethanol (1.0-1.2 ppm) plateaud at a very similar (1198) value to that of the methyl peak at 1.17-1.45 ppm in the block copolymer 21b taken in CDCl3 (integration 1152) when setting the PEG peak integral to 364. The % polymer remaining was calculated as 100−(sum of integration from 1.0-1.2 ppm/1198))*100.

[2] = Nile red encapsulation and triggered release from micelles; settings: dissolved in ethanol, same irradiation periods
[3] = Thermogravimetric analysis (TGA) of polymers; assay type: physicochemical
Source text: Ethyl glyoxylate in toluene solution (50% w/w), phenyl isocyanate, dibutyltin dilaurate (DBTL), benzyl chloroformate, 4-dimethylaminopyridine (DMAP), 4-bromomethyl-3-nitrobenzoic acid, methanesulfonyl chloride and benzyl bromide were obtained from Alfa Aesar (Canada). Fumaric acid and maleic acid were purchased from Acros Organics (USA). 6-Nitroveratryl chloroformate (NVOC-Cl) was obtained from Chem-Impex International, Inc. (USA). Propargyl amine was purchased from AK Scientific, Inc. (USA). 4-(Hydroxymethyl)phenylboronic acid pinacol ester and hydrogen peroxide solution (50 wt %) in water, hydrazine hydrate, dimethyl sulfide, sodium azide (NaN3), tin (II)chloride dehydrate, phosgene solution (15 wt. % in toluene), nile red and poly(ethylene glycol) methyl ether (MW=5000 g/mol, 2000 g/mol and 750 g/mol) were purchased from Sigma-Aldrich (USA). 1-Ethyl-3-(3-dimethylaminopropyl) carbodiimide hydrochloride (EDC.HCl) was purchased from Creo Salus (USA). Thionyl chloride (Alfa Aesar) was distilled under argon prior to use. Triethylamine (Et3N), pyridine, and dichloromethane were distilled from calcium hydride before use. Anhydrous tetrahydrofuran (THF) and N,N-dimethylformamide (DMF) were obtained from a solvent purification system using aluminum oxide columns. All the other chemicals were of reagent grade and used without further purification. ^1H NMR spectra were obtained in CDCl3 at 400 MHz or 600 MHz on Varian Inova instruments. NMR chemical shifts (δ) are reported in ppm and are calibrated against residual solvent signals of CDCl3 (δ 7.27), acetonitrile-d3 (δ 1.94), DMSO-d6 (δ 2.50) or deuterium oxide (δ 4.75). Fourier transform infrared spectra (FT-IR) were obtained using a Bruker tensor 27 instrument with films drop cast from CH2Cl2 on KBr plates. High-resolution mass spectrometry (HRMS) was performed using a Finnigan MAT 8400 electron impact (EI) mass spectrometer. The SEC instrument was equipped with a Viscotek GPC Max VE2001 solvent module. Samples were analyzed using the Viscotek VE3580 RI detector operating at 30° C. The separation technique employed two Agilent Polypore (300×7.5 mm) columns connected in series and to a Polypore guard column (50×7.5 mm). Samples were dissolved in THF (glass distilled grade) in approximately 5 mg/mL concentrations and filtered through 0.22 μm syringe filters. Samples were injected using a 100 μL loop. The THF eluent was filtered and eluted at 1 ml/min for a total of 30 minutes. A calibration curve was obtained from Polystyrene samples with molecular weight ranges of 1,540-1,126,000/mol Differential scanning calorimetry (DSC) and thermogravimetric analysis (TGA) were performed on a Mettler Toledo DSC 822e. For TGA the heating rate was 10° C./min between 50-400° C. under nitrogen. For DSC, the heating/cooling rate was 10° C./min from −100 to +17° C. Glass transition temperatures were obtained from the second heating cycle. Ultrapure water was obtained from a Barnstead EASYpure II system. Dialyses were performed using Spectra/Por regenerated cellulose membranes with 3500 g/mol MWCO.

Change of fluorescence intensity on irradiation (photostability) [2]	To (onset degradation temperature) [3]	Tp (peak degradation temperature) [3]	Molecule	Hydrolysis to glyoxylic acid and ethanol [1]
no detectable decrease in intensity	–	–	CCN(CC)c1ccc2nc3c4ccccc4c(=O)cc-3oc2c1 [nile red]	–
–	208 °C	236 °C	PEtG-co-poly(n-butyl glyoxylate) [Polymer 15]	–

Further lines, the molecule ahead of its results:

Molecule	Change of fluorescence intensity on irradiation (photostability) [2]	To (onset degradation temperature) [3]	Tp (peak degradation temperature) [3]	Hydrolysis to glyoxylic acid and ethanol [1]
CCOC(=O)C=O.O [EtGH, ethyl glyoxylate hydrate]	–	–	–	~45%
PEtG-co-poly(methyl glyoxylate) [Polymer 14]	–	181 °C	203 °C	–
poly(benzyl glyoxylate) [Polymer 13]	–	195 °C	229 °C	–
